Test results reported in patent US12466822B2, “Heterocyclic compounds as immunomodulators” (Incyte Corporation, priority 2016, dated 2025).

Molecular target: T1, PD-1/PD-L1 protein/protein interaction (recombinant human PD-L1 protein (19-238), recombinant human PD-1 protein (25-167)) (Homo sapiens, UniProt Q9NZQ7)
T1 construct: Recombinant human PD-L1 protein (19-238) with a His-tag at the C-terminus; purchased AcroBiosystems PD1-H5229 (PD-L1-His); PD1-H5257 (PD-1-Fc)
Test: PD-1/PD-L1 Homogeneous Time-Resolved Fluorescence (HTRF) Binding Assay
Conditions: 25° C., PBS buffer (pH 7.4), 40 minutes preincubation with inhibitors
Experimental: The assays were conducted in a standard black 384-well polystyrene plate with a final volume of 20 μL. Inhibitors were first serially diluted in DMSO and then added to the plate wells before the addition of other reaction components. The final concentration of DMSO in the assay was 1%. The assays were carried out at 25° C. in the PBS buffer (pH 7.4) with 0.05% Tween-20 and 0.1% BSA. Recombinant human PD-L1 protein (19-238) with a His-tag at the C-terminus was purchased from AcroBiosystems (PD1-H5229). Recombinant human PD-1 protein (25-167) with Fc tag at the C-terminus was also purchased from AcroBiosystems (PD1-H5257). PD-L1 and PD-1 proteins were diluted in the assay buffer and 10 μL was added to the plate well. Plates were centrifuged and proteins were preincubated with inhibitors for 40 minutes. The incubation was followed by the addition of 10 μL of HTRF detection buffer supplemented with Europium cryptate-labeled anti-human IgG (PerkinElmer-AD0212) specific for Fc and anti-His antibody conjugated to SureLight®-Allophycocyanin (APC, PerkinElmer-AD0059H). After centrifugation, the plate was incubated at 25° C. for 60 min. before reading on a PHERAstar FS plate reader (665 nm/620 nm ratio). Final concentrations in the assay were […], 10 nM PD-L1, 1 nM europium anti-human IgG and 20 nM anti-His-Allophycocyanin. IC50 determination was performed by fitting the curve of percent control activity versus the log of the inhibitor concentration using the GraphPad Prism 5.0 software.

T1 sequence (Q9NZQ7 19-238): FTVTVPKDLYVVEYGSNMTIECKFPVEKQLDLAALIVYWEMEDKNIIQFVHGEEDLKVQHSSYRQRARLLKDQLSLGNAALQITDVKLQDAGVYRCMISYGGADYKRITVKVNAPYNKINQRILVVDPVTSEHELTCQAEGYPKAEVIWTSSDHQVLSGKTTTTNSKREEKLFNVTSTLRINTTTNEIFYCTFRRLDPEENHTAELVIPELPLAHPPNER

IC50, ≤ 10 nM:
Cc1c(Nc2nccc3cc(CN4CC[C@@H](O)C4)cnc23)cccc1-c1cccc(NC(=O)c2nc3c(n2C)CCN(CC[C@H]2CC[C@H](C(=O)O)CC2)C3)c1Cl (single isomer, unassigned) [Example 52]
Cc1c(Nc2nccc3cc(CN4CC[C@@H](O)C4)cnc23)cccc1-c1cccc(NC(=O)c2nc3c(n2C)CCN(CC[C@H]2CC[C@@H](C(=O)O)CC2)C3)c1Cl (single isomer, unassigned) [Example 53]
Cc1c(NC(=O)c2nc3c(n2C)CCN(C2CCC(C)(C(=O)O)CC2)C3)cccc1-c1cccc(Nc2nccc3cc(CN4CC[C@@H](O)C4)cnc23)c1C (single isomer, unassigned) [Example 62-peak1]
Cc1c(NC(=O)c2nc3c(n2C)CCN(C2CCC(C)(C(=O)O)CC2)C3)cccc1-c1cccc(Nc2nccc3cc(CN4CC[C@@H](O)C4)cnc23)c1C (single isomer, unassigned) [Example 62-peak2]
Cc1c(NC(=O)c2nc3c(n2C)CCN(C2CCC(C(=O)O)CC2)C3)cccc1-c1cccc(Nc2nccc3cc(CN4CC[C@@H](O)C4)cnc23)c1C (single isomer, unassigned) [Example 64-peak1]
Cc1c(NC(=O)c2nc3c(n2C)CCN(C2CCC(C(=O)O)CC2)C3)cccc1-c1cccc(Nc2nccc3cc(CN4CC[C@@H](O)C4)cnc23)c1C (single isomer, unassigned) [Example 64-peak2]
Cc1c(Nc2ncnc3cc(CN4CC[C@@H](O)C4)cnc23)cccc1-c1cccc(NC(=O)c2nc3c(n2C)CCN(C2CCC(C)(C(=O)O)CC2)C3)c1Cl (single isomer, unassigned) [Example 68-peak1]
Cc1c(Nc2ncnc3cc(CN4CC[C@@H](O)C4)cnc23)cccc1-c1cccc(NC(=O)c2nc3c(n2C)CCN(C2CCC(C)(C(=O)O)CC2)C3)c1Cl (single isomer, unassigned) [Example 68-peak2]
Cc1c(-c2nc3c(s2)CNCC3)cccc1-c1cccc(Nc2nccc3cc(CNCCO)cnc23)c1Cl [Example 1, 2-(((8-((2-chloro-2′-methyl-3′-(4,5,6,7-tetrahydrothiazolo[5,4-c]pyridin-2-yl)-[1,1′-biphenyl]-3-yl)amino)-1,7-naphthyridin-3-yl)methyl)amino)ethan-1-ol]
Cc1c(Nc2nccc3cc(CNCCO)cnc23)cccc1-c1cccc(NC(=O)c2ccc(CNC3(C(=O)O)CCC3)cn2)c1F [Example 2, 1-(((6-(2-fluoro-3′-(3-((2-hydroxyethylamino)methyl)-1,7-naphthyridin-8-ylamino)-2′-methylbiphenyl-3-ylcarbamoyl)pyridin-3-yl)methyl)amino)cyclobutanecarboxylic acid]
Cc1c(Nc2nccc3cc(CNCCO)cnc23)cccc1-c1cccc(NC(=O)c2ccc(CN3CCCC[C@H]3C(=O)O)cn2)c1F [Example 3, (S)-1-((6-((2-fluoro-3′-((3-(((2-hydroxyethyl)amino)methyl)-1,7-naphthyridin-8-yl)amino)-2′-methyl-[1,1′-biphenyl]-3-yl)carbamoyl)pyridin-3-yl)methyl)piperidine-2-carboxylic acid]
Cc1c(Nc2nccc3cc(CNCCO)cnc23)cccc1-c1cccc(NC(=O)c2ccc(CNCCO)cn2)c1F [Example 4, N-(2-fluoro-3′-((3-(((2-hydroxyethyl)amino)methyl)-1,7-naphthyridin-8-yl)amino)-2′-methyl-[1,1′-biphenyl]-3-yl)-5-(((2-hydroxyethyl)amino)methyl)picolinamide]
Cc1c(Nc2nccc3cc(CNCCO)cnc23)cccc1-c1cccc(NC(=O)c2ccc(CNCCO)cn2)c1Cl [Example 5, N-(2-chloro-3′-((3-(((2-hydroxyethyl)amino)methyl)-1,7-naphthyridin-8-yl)amino)-2′-methyl-[1,1′-biphenyl]-3-yl)-5-(((2-hydroxyethyl)amino)methyl)picolinamide]
Cc1c(Nc2nccc3cc(CN4CC[C@@H](O)C4)cnc23)cccc1-c1cccc(NC(=O)c2ccc(CN3CC[C@@H](O)C3)cn2)c1Cl [Example 6, N-(2-chloro-3′-((3-(((R)-3-hydroxypyrrolidin-1-yl)methyl)-1,7-naphthyridin-8-yl)amino)-2′-methyl-[1,1′-biphenyl]-3-yl)-5-(((R)-3-hydroxypyrrolidin-1-yl)methyl)picolinamide]
Cc1c(Nc2nccc3cc(CN4CC[C@@H](C(=O)O)C4)cnc23)cccc1-c1cccc(NC(=O)c2ccc(CN3CC[C@@H](O)C3)cn2)c1Cl [Example 7, (R)-1-((8-((2′-chloro-3′-(5-(((R)-3-hydroxypyrrolidin-1-yl)methyl)picolinamido)-2-methyl-[1,1′-biphenyl]-3-yl)amino)-1,7-naphthyridin-3-yl)methyl)pyrrolidine-3-carboxylic acid]
Cc1c(Nc2nccc3cc(CN4CC(C(=O)O)C4)cnc23)cccc1-c1cccc(NC(=O)c2ccc(CN3CC[C@@H](O)C3)cn2)c1Cl [Example 8, (R)-1-((8-((2′-chloro-3′-(5-((3-hydroxypyrrolidin-1-yl)methyl)picolinamido)-2-methyl-[1,1′-biphenyl]-3-yl)amino)-1,7-naphthyridin-3-yl)methyl)azetidine-3-carboxylic acid]
Cc1c(Nc2nccc3cc(CN4CC[C@@H](O)C4)cnc23)cccc1-c1cccc(Nc2nccc3cc(CN4CC[C@@H](C(=O)O)C4)cnc23)c1C [Example 9, (R)-1-((8-((3′-((3-(((R)-3-hydroxypyrrolidin-1-yl)methyl)-1,7-naphthyridin-8-yl)amino)-2,2′-dimethyl-[1,1′-biphenyl]-3-yl)amino)-1,7-naphthyridin-3-yl)methyl)pyrrolidine-3-carboxylic acid]
Cc1c(Nc2nccc3cc(CN4CC[C@@H](O)C4)cnc23)cccc1-c1cccc(Nc2nccc3cc(CN4CC[C@H](C(=O)O)C4)cnc23)c1C [Example 10, (S)-1-((8-((3′-((3-(((R)-3-hydroxypyrrolidin-1-yl)methyl)-1,7-naphthyridin-8-yl)amino)-2,2′-dimethyl-[1,1′-biphenyl]-3-yl)amino)-1,7-naphthyridin-3-yl)methyl)pyrrolidine-3-carboxylic acid]
Cc1c(Nc2nccc3cc(CNCCO)cnc23)cccc1-c1cccc(Nc2nccc3cc(CN4CC[C@@H](C(=O)O)C4)cnc23)c1C [Example 11, (R)-1-((8-((3′-((3-(((2-hydroxyethyl)amino)methyl)-1,7-naphthyridin-8-yl)amino)-2,2′-dimethyl-[1,1′-biphenyl]-3-yl)amino)-1,7-naphthyridin-3-yl)methyl)pyrrolidine-3-carboxylic acid]
Cc1c(Nc2nccc3cc(CN4CC[C@H](O)C4)cnc23)cccc1-c1cccc(Nc2nccc3cc(CN4CC[C@@H](C(=O)O)C4)cnc23)c1C [Example 12, (R)-1-((8-((3′-((3-(((S)-3-hydroxypyrrolidin-1-yl)methyl)-1,7-naphthyridin-8-yl)amino)-2,2′-dimethyl-[1,1′-biphenyl]-3-yl)amino)-1,7-naphthyridin-3-yl)methyl)pyrrolidine-3-carboxylic acid]
